The record followed here is paper PMC10301845, “Characterization of a Novel M4 PAM PET Radioligand [11C]PF06885190 in Nonhuman Primates (NHP)” (Molecules, 2023).

Test [1] deals with T1, M4 (Homo sapiens, UniProt P08173).
T1 sequence (P08173 1-479): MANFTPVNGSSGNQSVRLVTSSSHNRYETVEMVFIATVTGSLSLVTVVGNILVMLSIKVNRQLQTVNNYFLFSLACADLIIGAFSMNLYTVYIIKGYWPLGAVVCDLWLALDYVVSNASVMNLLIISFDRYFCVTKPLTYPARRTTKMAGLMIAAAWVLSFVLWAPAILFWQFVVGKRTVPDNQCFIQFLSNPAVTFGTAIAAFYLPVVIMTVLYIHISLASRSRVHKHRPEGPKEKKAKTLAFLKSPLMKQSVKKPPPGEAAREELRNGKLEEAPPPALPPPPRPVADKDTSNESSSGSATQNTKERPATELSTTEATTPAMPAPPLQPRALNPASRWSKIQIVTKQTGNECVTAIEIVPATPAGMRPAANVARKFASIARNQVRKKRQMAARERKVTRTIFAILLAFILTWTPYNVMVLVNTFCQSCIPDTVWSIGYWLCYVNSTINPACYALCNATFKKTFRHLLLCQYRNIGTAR
Description: human M4 binding affinity (evaluated by Pfizer). As to conditions: identified and evaluated by Pfizer.

In test [2] the target is T2, M4 (Rattus norvegicus, UniProt P08485).
T2 sequence (P08485 1-478): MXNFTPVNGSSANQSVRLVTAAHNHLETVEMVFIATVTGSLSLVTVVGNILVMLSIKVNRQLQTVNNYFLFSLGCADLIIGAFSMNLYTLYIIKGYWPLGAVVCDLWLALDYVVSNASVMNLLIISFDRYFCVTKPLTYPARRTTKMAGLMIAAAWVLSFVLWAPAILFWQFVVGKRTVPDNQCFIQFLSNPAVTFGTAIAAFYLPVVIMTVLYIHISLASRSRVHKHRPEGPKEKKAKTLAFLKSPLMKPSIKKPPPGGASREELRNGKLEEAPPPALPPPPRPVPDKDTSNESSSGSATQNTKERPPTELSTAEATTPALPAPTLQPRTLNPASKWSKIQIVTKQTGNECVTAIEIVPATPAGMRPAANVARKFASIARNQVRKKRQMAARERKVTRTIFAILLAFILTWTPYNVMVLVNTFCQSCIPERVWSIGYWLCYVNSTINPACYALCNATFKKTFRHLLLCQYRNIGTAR
In words: rat M4 binding affinity (evaluated by Pfizer). The note with it: identified and evaluated by Pfizer.

Consider `CNc1nc(C)c(C)c2c1CN(C(=O)C[C@H]1C[C@@H]1c1ccc(F)nc1)C2` [PF06885190, 1-(6,7-dimethyl-4-(methylamino)-1,3-dihydro-2H-pyrrolo [3,4-c]pyridin-2-yl)-2-((1R,2S)-2-(6-fluoropyridin-3-yl)cyclopropyl)ethan-1-one], for which the Ki worked out at 0.16 nM at M4 [1] and 7.15 nM at M4 [2].
